{"source": "patent US20250090507A1", "about": "“Methods of Treating Cancer With a B-RAF Inhibitor” (MapKure, LLC, priority 2022, published 2025)", "key": {"pKa": {"assay": "pKa", "assay_type": "physicochemical"}, "Log P": {"assay": "Log P", "assay_type": "physicochemical"}, "Permeability": {"assay": "Permeability", "assay_type": "in vitro ADME"}, "circulating tumor DNA": {"system": "circulating tumor DNA", "assay": "Circulating tumor DNA variant allele frequency in melanoma pts", "assay_type": "in vivo, human", "conditions": "ctDNA, subset of melanoma pts", "text": "Peripheral blood samples were collected at specified timepoints as described in the schedule of assessments to be used for the longitudinal evaluation ctDNA by molecular (NGS) methodologies as pharmacodynamic biomarkers associated with response or resistance."}, "[1]": {"system": "tumor cell lines harboring non-V600 B-RAF mutations", "assay": "Preclinical inhibition of tumor cell lines", "assay_type": "cell-based", "conditions": "preclinical studies"}, "[2]": {"assay": "pH value of the solid form", "assay_type": "physicochemical", "conditions": "Form I"}, "[3]": {"system": "patients with tumors harboring B-RAF or K-RAS/N-RAS mutations", "assay": "Phase 1 study: tumor response by investigators using RECIST v1.1", "assay_type": "in vivo, human", "method": "Objective response rate was defined as the proportion of patients who had confirmed CR or PR, assessed by the investigator using RECIST v1.1.\nClinical benefit rate was defined as the proportion of patients with best overall response (BOR) of confirmed CR, PR, or SD lasting ≥16 weeks.\nTumor imaging were performed within 21 days prior to the first study treatment. Results of standard of care tests or examinations performed prior to obtaining informed consent and ≤21 days prior to the first administration of IMP may be used for the purposes of screening rather than repeating the standard of care tests. During the study, tumor imaging was performed approximately every 8 (±1) weeks in the first year and approximately every 12 (±1) weeks thereafter. Tumor assessments were required to be performed on schedule regardless of whether study treatment has been administered or held.\nTumor response was assessed by the investigators using RECIST v1.1. The same evaluator should perform assessments, if possible, to ensure internal consistency across visits.\nFor the analysis of ORR, DCR, and CBR, summary tables presenting the number and proportion of responders with the 2-sided exact (Clopper-Pearson) 95% CI for response rates were presented. Summary of each response category of the BOR (confirmed CR, confirmed PR, unconfirmed CR, unconfirmed PR, SD, or PD) were presented as well. Waterfall plots of maximum tumor shrinkage per patient were presented.\nTreatment emergent adverse events (TEAEs) were graded per NCI CTCAE v5.0. Tumor responses were assessed by investigators using RECIST v1.1."}, "[4]": {"assay": "Solubility of the solid form", "assay_type": "physicochemical", "conditions": "Form I"}, "[5]": {"system": "B-RAF/MEK inhibitor-resistant tumors", "assay": "Preclinical activity towards resistant tumors", "conditions": "preclinical studies"}}, "note": "Entries after “also recorded” stand apart in the source; their conditions may differ."}
{"smiles": "O=C1CCc2c(Oc3ccc4c(c3)[C@H]3[C@H](NC(=O)Nc5cc(F)c(F)cc5F)[C@H]3O4)ccnc2N1", "note": "[Compound A, 1-((1S,1aS,6bS)-5-((7-oxo-5,6,7,8-tetrahydro-1,8-naphthyridin-4-yl)oxy)-1a,6b-dihydro-1H-cyclopropa[b]benzofuran-1-yl)-3-(2,4,5-trifluorophenyl)urea]", "values": [{"measurement": "pKa", "setting": "pKa", "result": 5.28}, {"measurement": "logP", "setting": "Log P", "result": "> 4.46"}, {"measurement": "Permeability", "setting": "Permeability; class in words", "result": "High"}, {"measurement": "Papp", "setting": "Permeability; not told", "result": "> 10", "unit": "×10⁻⁶ cm/s"}, {"measurement": "maximum reduction of VAF, range", "setting": "circulating tumor DNA", "result": "98.7-99.9%"}, {"measurement": "maximum reduction of variant allele frequency (VAF) of detected mutations", "setting": "circulating tumor DNA; across evaluated subjects", "result": 99.3, "unit": "%"}, {"measurement": "Inhibition of tumor cell lines", "setting": "[1]", "result": "inhibited"}, {"measurement": "pH value", "setting": "[2]", "result": 5.76}, {"measurement": "clinical benefit rate", "setting": "[3]; 33 efficacy evaluable patients", "result": 42, "unit": "%"}, {"measurement": "disease control rate", "setting": "[3]; 33 efficacy evaluable patients", "result": 79, "unit": "%"}, {"measurement": "objective response rate", "setting": "[3]; 33 efficacy evaluable patients", "result": 18, "unit": "%"}, {"measurement": "Objective responders", "setting": "[3]; BRAF K601E/PIK3CA endometrial cancer", "result": 1}, {"measurement": "Objective responders", "setting": "[3]; BRAF V600E LGSOC", "result": 1}, {"measurement": "Objective responders", "setting": "[3]; BRAF V600E cholangiocarcinoma", "result": 1}, {"measurement": "Objective responders", "setting": "[3]; BRAF V600E melanoma pts who progressed on prior BRAF/MEK and checkpoint inhibitors (1 CR, 1 PR)", "result": 2}, {"measurement": "Patients evaluable for tumor response with PR at Week 8", "setting": "[3]; Cohort 5 (40 mg QD)", "result": 2, "unit": "patients"}, {"measurement": "CRC patients with stable disease", "setting": "[3]; FIG. 1, 2/2 CRC patients", "result": 100, "unit": "%"}, {"measurement": "responders that have melanoma", "setting": "[3]; FIG. 1, 4/5 responders", "result": 80, "unit": "%"}, {"measurement": "overall response rate", "setting": "[3]; FIG. 1, 5/22 evaluable patients", "result": 22.7, "unit": "%"}, {"measurement": "melanoma patients with stable disease, partial responses, or complete responses", "setting": "[3]; FIG. 1, 7/7 melanoma patients", "result": 100, "unit": "%"}, {"measurement": "melanoma patients with partial responses", "setting": "[3]; FIG. 1, of 7 melanoma patients", "result": 3}, {"measurement": "melanoma patients with stable disease", "setting": "[3]; FIG. 1, of 7 melanoma patients", "result": 3}, {"measurement": "melanoma patients with complete responses", "setting": "[3]; FIG. 1, of 7 melanoma patients, 1 CT readout", "result": 1}, {"measurement": "Objective responders", "setting": "[3]; KRAS G12D appendiceal cancer", "result": 1}, {"measurement": "Objective responders", "setting": "[3]; NRAS G12S melanoma", "result": 1}, {"measurement": "Objective responders", "setting": "[3]; NRAS Q61K melanoma", "result": 1}, {"measurement": "confirmed responses", "setting": "[3]; in 33 efficacy evaluable patients", "result": 6}, {"measurement": "complete response", "setting": "[3]; number of patients, 33 efficacy evaluable", "result": "one"}, {"measurement": "CR", "setting": "[3]; number of pts, 42 pts", "result": 1}, {"measurement": "SD≥24 weeks", "setting": "[3]; number of pts, 42 pts", "result": 8}, {"measurement": "cPR", "setting": "[3]; number of pts, 42 pts", "result": 5}, {"measurement": "uPR", "setting": "[3]; number of pts, 42 pts", "result": 2}, {"measurement": "Antitumor activity", "setting": "[3]; pts with no approved targeted therapy options / heavily pretreated patients", "result": "Antitumor activity was observed; also recorded: encouraging anti-tumor activity was observed"}, {"measurement": "Solubility", "setting": "[4]; in dimethyl sulfoxide (DMSO) and dimethylacetamide (DMA)", "result": "high solubility"}, {"measurement": "Solubility", "setting": "[4]; in water", "result": "Low solubility"}, {"measurement": "Activity towards resistant tumors", "setting": "[5]", "result": "active"}]}
